According to US9296776B2, “Substituted nucleoside derivatives with antiviral and antimicrobial properties” (Eastern Virginia Medical School, priority 2007, dated 2016):
Values after ≈ are worked out from the molar mass of the structure shown. Read-outs that look alike come from different tables or passages of the source.

How the values were obtained:
CCRF-CEM cell line = format: cell-based, human
Description: Cells were incubated with 10 μM of DMSO, FAM, KPH-1.5 and KPH-1.6 for 1 h and then imaged using a light microscope (ZEISS Axioplan 2) equipped with transmitted light microscopy with a differential-interference contrast method and an Achroplan 40× objective. […] The results further confirm the higher cellular uptake of KPH-1.6, a fatty acyl derivative of FLT, in comparison to KPH-1.5 and FAM alone. Similar results were also observed with fluorescein-substituted derivative of 3TC.

[1] = test system: HIV-1 IIIB (cell-free virus); assay: microbe, parasite or virus in culture; format: cell-based; details: for IC50: read-out: IC50 Cell-Free Virus IIIB
[2] = Cytotoxicity (Tables 4, 6, 8)
[3] = test system: HIV-1 BaL (cell-free virus); assay: Single-round infection assay, cell-free virus BaL; format: cell-based; details: for IC50: read-out: IC50 Cell-Free Virus BaL
[4] = test system: Cell-associated HIV-1, SupT1 (IIIB); assay: Single-round infection assay, cell-associated virus SupT1 (IIIB); format: cell-based
H. ducreyi Strain HMC 64 = assay: Antibacterial activity (MIC), strain HMC 64; format: cell-based, Haemophilus ducreyi
H. ducreyi Strain HMC56 = assay: Antibacterial activity (MIC), strain HMC56; format: cell-based, Haemophilus ducreyi
H. ducreyi Strain HMC 62 = assay: Antibacterial activity (MIC), strain HMC 62; format: cell-based, Haemophilus ducreyi
[5] = test system: HIV-1 clinical isolate R5 = 92TH014; assay: Antiviral activity against HIV-1 clinical isolate R5, RT endpoint; format: cell-based
[6] = test system: Multidrug resistant virus 7324-1; assay: Antiviral activity against multidrug resistant HIV, RT endpoint; format: cell-based, HIV-1
[7] = Table 1, 2 h incubation, wash, 48 h culture
[8] = [Haemophilus] ducreyi, read-out: MIC (minimum inhibitory concentration)
[9] = Table 2, 6 h incubation then 6 days
[10] = Table 2, MDR = 7324-1, RT endpoint, 6 h incubation then 6 days

With “3′-fluoro-2′,3′-dideoxy-5′-O-(12-(N-5(6)carboxylfluoresceinaminododecanoyl)thymidine” the “cell fluorescence by microscopy” value (CCRF-CEM cell line) was “showed fluorescence” and the “IC50 Cell-Free Virus IIIB” value [1, 7] was 4.3 µg/mL.

For “5(6)-carboxyfluorescein [FAM, reference compound]”, the “cell fluorescence by microscopy” value (CCRF-CEM cell line) was “no significant fluorescence”.

Nc1ccn([C@@H]2CS[C@H](CO)O2)c(=O)n1 [2′,3′-dideoxy-3′-thiacytidine, reference compound] showed an IC50 ([1]; Human immunodeficiency virus 1, IIIB) of 7.5 µg/mL (≈ 32.7 µM), a CC50 [2] of over 100 µg/mL and an IC50 ([3]; Human immunodeficiency virus 1, BAL) of 2.6 µg/mL (≈ 11.3 µM). It also gave an IC50 ([4]; Human immunodeficiency virus 1, IIIB, SUP-T1, read-out: IC50 Cell-Associated Virus SupT1 (IIIB)) of 18.4 µg/mL (≈ 80.3 µM).

With CCCCCSCCCCCCCC(=O)OC[C@H]1O[C@@H](n2cc(C)c(=O)[nH]c2=O)C[C@@H]1N=[N+]=[N-] [3′-azido-2′,3′-dideoxy-5′-O-(9-thiatertradecanoyl)thymidine] the “MIC (minimum inhibitory concentration)” value (H. ducreyi Strain HMC 64) was 750 µg/mL (≈ 1510 µM), the “IC50 Cell-Free Virus IIIB” value [1, 7] was 3.7 µg/mL (≈ 7.47 µM) and the “MIC (minimum inhibitory concentration)” value (H. ducreyi Strain HMC56) was 250 µg/mL (≈ 504 µM). For the same compound, the “IC50 Cell-Free Virus BaL” value [3, 7] was 8.1 ( μg/mL, the “MIC (minimum inhibitory concentration)” value (H. ducreyi Strain HMC 62) was 250 µg/mL (≈ 504 µM) and the “IC50 Cell-Associated Virus SupT1 (IIIB)” value [4, 7] was 42.0 µg/mL (≈ 84.7 µM).

Cc1cn([C@H]2C[C@H](N=[N+]=[N-])[C@@H](CO)O2)c(=O)[nH]c1=O [3′-azido-2′,3′-dideoxythymidine (AZT), 3′-azido-2′,3′-dideoxythymidine, reference compound] gave an MIC (H. ducreyi Strain HMC 64; [8]) of 500 µg/mL (≈ 1870 µM), an IC50 ([1]; Human immunodeficiency virus 1, IIIB, Table 1, 2 h incubation, wash, 48 h culture) of 9.2 µg/mL (≈ 34.4 µM) and an EC50 ([1]; Human immunodeficiency virus 1, IIIB, Table 4, read-out: EC50 Cell-Free Virus IIIB) of 2.4 µg/mL. It also gave a CC50 (in vitro) of over 100 µg/mL, an MIC (H. ducreyi Strain HMC56; [8]) of 125 µg/mL (≈ 468 µM) and an IC50 ([5]; Human immunodeficiency virus 1, Table 2, 6 h incubation then 6 days, read-out: IC50) of 0.02 µg/mL (≈ 0.0748 µM). The IC50 ([3]; Human immunodeficiency virus 1, BAL, Table 1, 2 h incubation, wash, 48 h culture) was 0.8 µg/mL (≈ 2.99 µM), the EC50 ([3]; Human immunodeficiency virus 1, BAL, Table 4) was 4.2 µg/mL (≈ 15.7 µM) and the MIC (H. ducreyi Strain HMC 62; [8]) was 750 µg/mL (≈ 2810 µM). It also gave an IC50 ([4]; Human immunodeficiency virus 1, IIIB, SUP-T1, Table 1, 2 h incubation, wash, 48 h culture, read-out: IC50 Cell-Associated Virus SupT1 (IIIB)) of over 100 µg/mL, an EC50 ([4]; Human immunodeficiency virus 1, IIIB, SUP-T1, Table 4) of over 100 µg/mL and an IC50 ([6]; Human immunodeficiency virus 1) of 0.33 µg/mL (≈ 1.23 µM).

With Cc1cn([C@H]2C[C@H](F)[C@@H](COC(=O)CCCCCCCCCCCN=[N+]=[N-])O2)c(=O)[nH]c1=O [3′-fluoro-2′,3′-dideoxy-5′-O-(12-azidododecanoyl)thymidine] the “MIC (minimum inhibitory concentration)” value (H. ducreyi Strain HMC 64) was 125 µg/mL (≈ 267 µM), the “IC50 Cell-Free Virus IIIB” value [1, 7] was 0.4 µg/mL (≈ 0.856 µM) and the “MIC (minimum inhibitory concentration)” value (H. ducreyi Strain HMC56) was 500 µg/mL (≈ 1070 µM). The IC50 [5, 9] was 0.003 µg/mL (≈ 0.00642 µM), the “IC50 Cell-Free Virus BaL” value [3, 7] was 0.2 µg/mL (≈ 0.428 µM) and the “MIC (minimum inhibitory concentration)” value (H. ducreyi Strain HMC 62) was 125 µg/mL (≈ 267 µM). For the same compound, the “IC50 Cell-Associated Virus SupT1 (IIIB)” value [4, 7] was 5.9 µg/mL (≈ 12.6 µM) and the IC50 [6, 10] was 0.003 µg/mL (≈ 0.00642 µM).

With CCSCCCCCCCCCCCC(=O)OC[C@H]1O[C@@H](n2cc(C)c(=O)[nH]c2=O)C[C@@H]1F [3′-fluoro-2′,3′-dideoxy-5′-O-(13-thiapentadecanoyl)thymidine] the “MIC (minimum inhibitory concentration)” value (H. ducreyi Strain HMC 64) was 125 µg/mL (≈ 257 µM), the “IC50 Cell-Free Virus IIIB” value [1, 7] was 0.5 µg/mL (≈ 1.03 µM) and the “MIC (minimum inhibitory concentration)” value (H. ducreyi Strain HMC56) was 125 µg/mL (≈ 257 µM). For the same compound, the IC50 [5, 9] was 0.002 µg/mL (≈ 0.00411 µM), the “IC50 Cell-Free Virus BaL” value [3, 7] was under 0.1 µg/mL and the “MIC (minimum inhibitory concentration)” value (H. ducreyi Strain HMC 62) was 125 µg/mL (≈ 257 µM). For the same compound, the “IC50 Cell-Associated Virus SupT1 (IIIB)” value [4, 7] was 1.1 µg/mL (≈ 2.26 µM) and the IC50 [6, 10] was 0.002 µg/mL (≈ 0.00411 µM).

With CCCCCCCCCCCCCC(=O)OC[C@H]1O[C@@H](n2cc(C)c(=O)[nH]c2=O)C[C@@H]1F [3′-fluoro-2′,3′-dideoxy-5′-O-(tetradecanoyl)thymidine] the “IC50 Cell-Free Virus IIIB” value [1, 7] was 0.3 µg/mL (≈ 0.66 µM), the IC50 [5, 9] was 0.003 µg/mL (≈ 0.0066 µM) and the “IC50 Cell-Free Virus BaL” value [3, 7] was 0.5 µg/mL (≈ 1.1 µM). For the same compound, the “IC50 Cell-Associated Virus SupT1 (IIIB)” value [4, 7] was 2.9 µg/mL (≈ 6.38 µM) and the IC50 [6, 10] was 0.002 µg/mL (≈ 0.0044 µM).

With Cc1cn([C@H]2C=C[C@@H](COC(=O)CCCCCCCCCCCBr)O2)c(=O)[nH]c1=O [12-bromododecanoyl-2′,3′-didehydro-2′,3′-dideoxythymidine] the “IC50 Cell-Free Virus IIIB” value [1, 7] was 7.2 µg/mL (≈ 14.8 µM), the “IC50 Cell-Free Virus BaL” value [3, 7] was 1.1 µg/mL (≈ 2.27 µM) and the “IC50 Cell-Associated Virus SupT1 (IIIB)” value [4, 7] was over 100 µg/mL.

For CCCCCCCCCCCCCC(=O)NCCCCC(NC(=O)CCNC(=O)C(CCC(=O)OC[C@H]1O[C@@H](n2cc(C)c(=O)[nH]c2=O)C[C@@H]1F)NC(C)=O)C(=O)O (some centres unmarked) [KPH-91, FLT(Glutamyl)-myrsitoyllysine], the “EC50 Cell-free HIV-1 (IIIB)” value ([1]; Table 8, 2 h incubation, wash, 48 h culture) was 8.7 µg/mL (≈ 10.5 µM), the EC50 ([1]; Table 8, 2 h incubation, wash, 48 h culture, read-out: EC50 Cell-free HIV-1 (IIIB)) was 10.5 µM and the CC50 [2] was over 100 µg/mL.

Work on CCCCCCCCCCCCCC(=O)NCCCC[C@H](NC(=O)CCNC(=O)[C@H](CCC(=O)OC[C@H]1O[C@@H](n2cc(C)c(=O)[nH]c2=O)C[C@@H]1F)NC(=O)CCCCCCCCCCCCC)C(=O)O [KPH-92, FLT(myristoylglutamyl)-mysritoyllysine] yielded a CC50 [2] of over 100 µg/mL.
